19 compounds from US10781181B2, “N-((het) arylmethyl)-heteroaryl-carboxamides compounds as plasma kallikrein inhibitors” (Kalvista Pharmaceuticals Limited, priority 2014, dated 2020) can be followed below.

The structures appear in SMILES notation.

Holding throughout (assay type): biochemical
The target of one assay is Human FXIa (Homo sapiens (Human), UniProt P03951). Nature of the assay: Determination of the % inhibition for FXIa. The following applies: 40 μM of the test compound, human FXIa, 25° C.; for inhibition at 40 µM: read-out: % Inhibition @ 40 μM (human FXIa). The method, then:
Determination of the % Inhibition for FXIa
Human FXIa (Enzyme Research Laboratories) was incubated at 25° C. with the fluorogenic substrate Z-Gly-Pro-Arg-AFC and 40 μM of the test compound. Residual enzyme activity (initial rate of reaction) was determined by measuring the change in […].

The next assay has as its target Human plasma kallikrein (Homo sapiens (Human), UniProt P03952). Nature of the assay: Determination of the IC50 for plasma kallikrein. The note with it: read-out: IC50 (human PKal). The procedure: Determination of the IC50 for Plasma Kallikrein
Human plasma kallikrein (Protogen) was incubated at 25° C. with the fluorogenic substrate H-DPro-Phe-Arg-AFC and various concentrations of the test compound. Residual enzyme activity (initial rate of reaction) was determined by measuring the change in […] at 410 nm and the IC50 value for the test compound was determined.

The target of the next assay is Human KLK1 (Homo sapiens (Human), UniProt P06870). Nature of the assay: Determination of the IC50 for KLK1. The note with it: human KLK1, 25° C., substrate H-DVal-Leu-Arg-AFC. The procedure: Determination of the IC50 for KLK1
Human KLK1 (Callbiochem) was incubated at 25° C. with the fluorogenic substrate H-DVal-Leu-Arg-AFC and various concentrations of the test compound. Residual enzyme activity (initial rate of reaction) was determined by measuring the change in […] at 410 nm and the IC50 value for the test compound was determined.

Chain of Human KLK1 (P06870 25-262): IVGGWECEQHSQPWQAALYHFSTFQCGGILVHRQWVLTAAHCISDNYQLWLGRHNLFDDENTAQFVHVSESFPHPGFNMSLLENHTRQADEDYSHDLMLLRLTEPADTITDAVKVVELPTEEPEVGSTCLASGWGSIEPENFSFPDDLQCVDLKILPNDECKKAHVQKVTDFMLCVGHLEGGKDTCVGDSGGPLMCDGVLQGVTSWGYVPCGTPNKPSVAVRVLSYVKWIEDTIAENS
Chain of Human plasma kallikrein (P03952 391-638): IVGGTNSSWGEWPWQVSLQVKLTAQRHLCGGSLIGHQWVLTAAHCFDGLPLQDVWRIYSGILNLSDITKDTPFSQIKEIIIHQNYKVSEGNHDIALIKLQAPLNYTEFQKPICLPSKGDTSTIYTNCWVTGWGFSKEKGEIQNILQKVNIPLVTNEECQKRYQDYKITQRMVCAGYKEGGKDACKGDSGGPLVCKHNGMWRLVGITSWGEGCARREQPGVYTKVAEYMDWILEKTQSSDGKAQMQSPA
Chain of Human plasma kallikrein (P03952 20-390 partner): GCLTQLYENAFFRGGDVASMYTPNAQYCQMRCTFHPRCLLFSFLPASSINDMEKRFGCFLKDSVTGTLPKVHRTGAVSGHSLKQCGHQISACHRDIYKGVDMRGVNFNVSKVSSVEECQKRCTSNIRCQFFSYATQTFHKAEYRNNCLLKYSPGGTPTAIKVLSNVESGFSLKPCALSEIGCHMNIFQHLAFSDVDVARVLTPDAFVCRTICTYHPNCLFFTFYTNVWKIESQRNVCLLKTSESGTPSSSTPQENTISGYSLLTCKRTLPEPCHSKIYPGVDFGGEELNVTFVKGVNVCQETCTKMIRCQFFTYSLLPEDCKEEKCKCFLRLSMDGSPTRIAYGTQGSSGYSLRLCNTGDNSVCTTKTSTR
Chain of Human FXIa (P03951 388-625 limits assumed): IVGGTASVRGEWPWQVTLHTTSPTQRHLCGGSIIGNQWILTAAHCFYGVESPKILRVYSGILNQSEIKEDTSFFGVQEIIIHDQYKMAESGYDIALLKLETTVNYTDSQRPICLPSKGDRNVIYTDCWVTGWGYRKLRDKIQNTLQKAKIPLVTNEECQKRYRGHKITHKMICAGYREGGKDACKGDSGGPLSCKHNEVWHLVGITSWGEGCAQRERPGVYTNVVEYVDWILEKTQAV
Chain of Human FXIa (P03951 19-387 partner limits assumed): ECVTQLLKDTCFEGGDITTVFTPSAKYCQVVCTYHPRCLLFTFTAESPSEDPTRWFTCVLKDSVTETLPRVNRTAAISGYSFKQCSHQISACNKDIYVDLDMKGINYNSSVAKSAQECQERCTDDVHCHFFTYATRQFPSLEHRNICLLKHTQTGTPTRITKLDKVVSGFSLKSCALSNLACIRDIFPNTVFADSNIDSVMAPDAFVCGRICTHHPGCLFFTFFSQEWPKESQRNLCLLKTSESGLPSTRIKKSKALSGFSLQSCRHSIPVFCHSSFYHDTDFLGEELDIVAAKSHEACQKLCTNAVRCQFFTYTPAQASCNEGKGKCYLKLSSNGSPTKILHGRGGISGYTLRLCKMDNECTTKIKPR

Consider `Nc1nn(Cc2ccc(Cn3ccccc3=O)cc2)cc1C(=O)N[C@H]1CCN(c2cc(Cl)ccn2)C1` [Example 112, 3-amino-N-[(3S)-1-(4-chloropyridin-2-yl)pyrrolidin-3-yl]-1-({4-[(2-oxopyridin-1-yl)methyl]phenyl}methyl)pyrazole-4-carboxamide], for which the inhibition at 40 µM at Human FXIa worked out at 29%. Also, the IC50 was 7.46 µM at Human plasma kallikrein and more than 40 µM on Human KLK1.

For the compound `Nc1nn(Cc2ccc(Cn3ccccc3=O)cc2)cc1C(=O)NCCOc1cc(Cl)cc(Cl)c1` [Example 31, 3-amino-N-[2-(3,5-dichlorophenoxy)ethyl]-1-({4-[(2-oxopyridin-1-yl)methyl]phenyl}methyl)pyrazole-4-carboxamide], at Human FXIa, the inhibition at 40 µM came out at 47%. The half-inhibitory concentration (IC50) at Human plasma kallikrein is 0.646 µM; against Human KLK1, more than 40 µM.

As for `Nc1nn(Cc2ccc(Cn3ccccc3=O)cc2)cc1C(=O)N[C@H]1CC(=O)N(c2cccc(Cl)c2)C1` [Example 111, 3-amino-N-[(3S)-1-(3-chlorophenyl)-5-oxopyrrolidin-3-yl]-1-({4-[(2-oxopyridin-1-yl)methyl]phenyl}methyl)pyrazole-4-carboxamide], the inhibition at 40 µM on Human FXIa is 23%. The values for the half-inhibitory concentration (IC50) on Human plasma kallikrein and against Human KLK1 were 0.0421 µM and more than 40 µM, respectively.

Take `Nc1nn(Cc2ccnc(-n3cccn3)c2)cc1C(=O)NCCOc1cccc(Cl)c1` [Example 66, 3-amino-N-[2-(3-chlorophenoxy)ethyl]-1-{[2-(pyrazol-1-yl)pyridin-4-yl]methyl}pyrazole-4-carboxamide]: the inhibition at 40 µM on Human FXIa was 0%. For the same compound, the IC50 on Human plasma kallikrein is 4.92 µM; against Human KLK1, more than 40 µM.

As for `Nc1nn(Cc2ccc(Cn3ccccc3=O)cc2)cc1C(=O)NCC(=O)Nc1ccccc1Cl` [Example 3, 2-{[3-amino-1-({4-[(2-oxopyridin-1-yl)methyl]phenyl}methyl)pyrazol-4-yl]formamido}-N-(2-chlorophenyl)acetamide], the inhibition at 40 µM at Human FXIa stood at 0%. The IC50 is 5.53 µM at Human plasma kallikrein and more than 10 µM against Human KLK1.

In the case of `Nc1nn(Cc2ccc(Cn3cccnc3=O)cc2)cc1C(=O)NCCOc1cccc(Cl)c1` [Example 86, 3-amino-N-[2-(3-chlorophenoxy)ethyl]-1-({4-[(2-oxopyrimidin-1-yl)methyl]phenyl}methyl)pyrazole-4-carboxamide], the inhibition at 40 µM on Human FXIa came out at 0%. In addition, the figures for the IC50 at Human plasma kallikrein and at Human KLK1 were 0.0302 µM and more than 40 µM, respectively.

In the case of `Nc1nn(Cc2ccc(Cn3ccccc3=O)cc2)cc1C(=O)N[C@@H]1CCN(c2cccc(Cl)c2)C1` [Example 106, 3-amino-N-[(3R)-1-(3-chlorophenyl)pyrrolidin-3-yl]-1-({4-[(2-oxopyridin-1-yl)methyl]phenyl}methyl)pyrazole-4-carboxamide], the inhibition at 40 µM on Human FXIa amounted to 4%. Also, the half-inhibitory concentration (IC50) on Human plasma kallikrein is 0.684 µM; at Human KLK1 it was more than 40 µM.

Regarding `Nc1nn(Cc2ccc(Cn3ccccc3=O)cc2)cc1C(=O)NCCCc1cccc(Cl)c1` [Example 42, 3-amino-N-[3-(3-chlorophenyl)propyl]-1-({4-[(2-oxopyridin-1-yl)methyl]phenyl}methyl)pyrazole-4-carboxamide], the inhibition at 40 µM at Human FXIa amounted to 0%. In addition, the values for the half-maximal inhibitory concentration (IC50) at Human plasma kallikrein and against Human KLK1 were 0.0032 µM and more than 40 µM, respectively.

`Cc1cnn(-c2ccc(Cn3cc(C(=O)NCCOc4cccc(Cl)c4)c(N)n3)cn2)c1` [Example 89, 3-amino-N-[2-(3-chlorophenoxy)ethyl]-1-{[6-(4-methylpyrazol-1-yl)pyridin-3-yl]methyl}pyrazole-4-carboxamide]: at Human FXIa, the inhibition at 40 µM was found to be 33%. The IC50 was 3.35 µM on Human plasma kallikrein and more than 40 µM against Human KLK1.

Consider `Nc1nn(Cc2ccc(Cn3ccccc3=O)cc2)cc1C(=O)NCC(=O)Nc1cccc(Cl)c1` [Example 2], for which the inhibition at 40 µM at Human FXIa is 0%. For the same compound, the IC50 is 0.0602 µM at Human plasma kallikrein and more than 10 µM on Human KLK1.

Consider `Nc1nn(Cc2ccc(CN3CCOCC3=O)cc2)cc1C(=O)NCCOc1cccc(Cl)c1` [Example 76, 3-amino-N-[2-(3-chlorophenoxy)ethyl]-1-({4-[(3-oxomorpholin-4-yl)methyl]phenyl}methyl)pyrazole-4-carboxamide], for which the inhibition at 40 µM at Human FXIa was 0%. Moreover, the IC50 is 0.227 µM at Human plasma kallikrein and more than 40 µM on Human KLK1.

On to `CN(Cc1ccc(Cn2cc(C(=O)NCCOc3cccc(Cl)c3)c(N)n2)cc1)c1ccccn1` [Example 87, 3-amino-N-[2-(3-chlorophenoxy)ethyl]-1-[(4-{[methyl(pyridin-2-yl)amino]methyl}phenyl)methyl]pyrazole-4-carboxamide], for which the inhibition at 40 µM on Human FXIa was found to be 0%. Moreover, the figures for the IC50 on Human plasma kallikrein and against Human KLK1 were 0.78 µM and more than 40 µM, respectively.

`Nc1nn(Cc2ccc3[nH]ncc3c2)cc1C(=O)NCCOc1cccc(Cl)c1` [Example 92, 3-amino-N-[2-(3-chlorophenoxy)ethyl]-1-(1H-indazol-5-ylmethyl)pyrazole-4-carboxamide]: the inhibition at 40 µM at Human FXIa was 2%. The half-inhibitory concentration (IC50) at Human plasma kallikrein and at Human KLK1 was more than 10 µM each time.

Regarding `Nc1nn(Cc2nc(-c3ccccc3)no2)cc1C(=O)NCCOc1cccc(Cl)c1` [Example 80, 3-amino-N-[2-(3-chlorophenoxy)ethyl]-1-[(3-phenyl-1,2,4-oxadiazol-5-yl)methyl]pyrazole-4-carboxamide], on Human FXIa, the inhibition at 40 µM stood at 0%. Also, the half-inhibitory concentration (IC50) on Human plasma kallikrein was 6.33 µM; against Human KLK1, more than 40 µM.

In the case of `CC(C)C(=O)N(C)Cc1ccc(Cn2cc(C(=O)NCCOc3cccc(Cl)c3)c(N)n2)cc1` [Example 84, 3-amino-N-[2-(3-chlorophenoxy)ethyl]-1-({4-[(N,2-dimethylpropanamido)methyl]phenyl}methyl)pyrazole-4-carboxamide], at Human FXIa, the inhibition at 40 µM amounted to 3%. Besides, the IC50 at Human plasma kallikrein is 0.731 µM; at Human KLK1 it was more than 40 µM.

As for `Cc1cc(C(=O)NCCOc2cccc(Cl)c2)c(C)n1Cc1csc(-c2ccccc2)n1` [Example 48, N-[2-(3-chlorophenoxy)ethyl]-2,5-dimethyl-1-[(2-phenyl-1,3-thiazol-4-yl)methyl]pyrrole-3-carboxamide], the “% Inhibition @ 40 μM (human FXIa)” value at Human FXIa is given as 3%. Also, the figures for the half-maximal inhibitory concentration (IC50) at Human plasma kallikrein and against Human KLK1 were 6.62 µM and more than 10 µM, respectively.

As to `N#Cc1ccc(Cl)cc1OCCNC(=O)c1cn(Cc2ccc(Cn3ccccc3=O)cc2)nc1N` [Example 32, 3-amino-N-[2-(5-chloro-2-cyanophenoxy)ethyl]-1-({4-[(2-oxopyridin-1-yl)methyl]phenyl}methyl)pyrazole-4-carboxamide], on Human FXIa, the inhibition at 40 µM turned out to be 10%. Moreover, the IC50 on Human plasma kallikrein was 0.0101 µM; against Human KLK1, more than 40 µM.

As to `C[C@H](COc1cccc(Cl)c1)NC(=O)c1cn(Cc2ccc(Cn3ccccc3=O)cc2)nc1N` [Example 113, 3-amino-N-[(2R)-1-(3-chlorophenoxy)propan-2-yl]-1-({4-[(2-oxopyridin-1-yl)methyl]phenyl}methyl)pyrazole-4-carboxamide], at Human FXIa, the inhibition at 40 µM was 3%. Also, the IC50 on Human plasma kallikrein was 0.316 µM; against Human KLK1 it was more than 40 µM.

On to `COCc1nn(Cc2ccc(Cn3cc(C)cn3)cc2)cc1C(=O)NCCOc1cccc(Cl)c1` [Example 27, N-[2-(3-chlorophenoxy)ethyl]-3-(methoxymethyl)-1-({4-[(4-methylpyrazol-1-yl)methyl]phenyl}methyl)pyrazole-4-carboxamide], for which the inhibition at 40 µM on Human FXIa was 0%. The figures for the IC50 on Human plasma kallikrein and on Human KLK1 were 0.231 µM and more than 10 µM, respectively.
